How the values were obtained:
Type in all cases: in vivo
[1] = tested on: barnyardgrass (Echinochloa crus-galli); assay: Test B flooded paddy test, barnyardgrass; conditions: applied to paddy water, visual rating after 13 to 15 days, scale 0 (no effect) to 100 (complete control)
Method in brief: (§1)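 Visual injury ratings against untreated controls, taken 13 to 15 days after compound was added to paddy water standing 3 cm above the soil.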

rice (Oryza sativa) = assay: Test B flooded paddy test, rice; conditions: applied to paddy water, visual rating after 13 to 15 days, scale 0 (no effect) to 100 (complete control)
Method in brief: as §1

kochia (Kochia scoparia) [2] = assay: Test A preemergence, kochia; conditions: 0 to 100 scale (0 no effect, 100 complete control)
Method in brief: (§2)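 Injury scores (0 no effect, 100 complete control) were assigned by visually comparing treated with untreated plants after about 10 days of greenhouse growth. Seeds for soil treatment were sown into a loam and sand blend, while plants for foliar treatment grew in pots of that same blend.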

[3] = tested on: ryegrass, Italian (Lolium multiflorum); assay: Test A preemergence, Italian ryegrass; conditions: 0 to 100 scale (0 no effect, 100 complete control)
Method in brief: as §2

[4] = tested on: ryegrass, Italian (Lolium multiflorum); assay: Test A postemergence, Italian ryegrass; conditions: visual injury, 0 to 100 scale (0 no effect, 100 complete control), approximately 10 days
Method in brief: as §2

[5] = tested on: barnyardgrass (Echinochloa crus-galli); assay: Test A preemergence, barnyardgrass; conditions: 0 to 100 scale (0 no effect, 100 complete control)
Method in brief: as §2

[6] = tested on: ragweed (common ragweed, Ambrosia elatior); assay: Test A preemergence, ragweed; conditions: 0 to 100 scale (0 no effect, 100 complete control)
Method in brief: as §2

[7] = tested on: sedge, umbrella (small-flower umbrella sedge, Cyperus difformis); assay: Test B flooded paddy test, umbrella sedge; conditions: applied to paddy water, visual rating after 13 to 15 days, scale 0 (no effect) to 100 (complete control)
Method in brief: as §1

[8] = tested on: ducksalad (Heteranthera limosa); assay: Test B flooded paddy test, ducksalad; conditions: applied to paddy water, visual rating after 13 to 15 days, scale 0 (no effect) to 100 (complete control)
Method in brief: as §1

[9] = tested on: galium (catchweed bedstraw, Galium aparine); assay: Test A postemergence, galium; conditions: visual injury, 0 to 100 scale (0 no effect, 100 complete control), approximately 10 days
Method in brief: as §2

[10] = tested on: foxtail, giant (Setaria faberii); assay: Test A preemergence, giant foxtail; conditions: 0 to 100 scale (0 no effect, 100 complete control)
Method in brief: as §2

[11] = tested on: blackgrass (Alopecurus myosuroides); assay: Test A postemergence, blackgrass; conditions: visual injury, 0 to 100 scale (0 no effect, 100 complete control), approximately 10 days
Method in brief: as §2

[12] = tested on: barnyardgrass (Echinochloa crus-galli); assay: Test A postemergence, barnyardgrass; conditions: visual injury, 0 to 100 scale (0 no effect, 100 complete control), approximately 10 days
Method in brief: as §2

[13] = tested on: wheat (Triticum aestivum); assay: Test A postemergence, wheat; conditions: visual injury, 0 to 100 scale (0 no effect, 100 complete control), approximately 10 days
Method in brief: as §2

[14] = tested on: ragweed (common ragweed, Ambrosia elatior); assay: Test A postemergence, ragweed; conditions: visual injury, 0 to 100 scale (0 no effect, 100 complete control), approximately 10 days
Method in brief: as §2

kochia (Kochia scoparia) [15] = assay: Test A postemergence, kochia; conditions: visual injury, 0 to 100 scale (0 no effect, 100 complete control), approximately 10 days
Method in brief: as §2

[16] = tested on: pigweed (Amaranthus retroflexus); assay: Test A preemergence, pigweed; conditions: 0 to 100 scale (0 no effect, 100 complete control)
Method in brief: as §2

[17] = tested on: foxtail, giant (Setaria faberii); assay: Test A postemergence, giant foxtail; conditions: visual injury, 0 to 100 scale (0 no effect, 100 complete control), approximately 10 days
Method in brief: as §2

corn (Zea mays) = assay: Test A postemergence, corn; conditions: visual injury, 0 to 100 scale (0 no effect, 100 complete control), approximately 10 days
Method in brief: as §2

[18] = tested on: pigweed (Amaranthus retroflexus); assay: Test A postemergence, pigweed; conditions: visual injury, 0 to 100 scale (0 no effect, 100 complete control), approximately 10 days
Method in brief: as §2

SMILES: O=C1NCC(c2cccc(Cn3ccc(C(F)(F)F)n3)c2)C1C(=O)Nc1ccccc1F (stereo not drawn) [Compound 23]
- Plant response rating, Barnyardgrass (Flood) ([1]; 500 g ai/ha): 0
- Plant response rating, Rice (Flood) (rice (Oryza sativa); 500 g ai/ha): 0
- Plant response rating, Kochia (kochia (Kochia scoparia) [2]; 125 g ai/ha): 0
- Plant response rating, Kochia (kochia (Kochia scoparia) [2]; 500 g ai/ha): 20
- Plant response rating, Ryegrass, Italian ([3]; 125 g ai/ha): 0
- Plant response rating, Ryegrass, Italian ([3]; 500 g ai/ha): 0
- Plant response rating, Ryegrass, Italian ([4]; 125 g ai/ha): 0
- Plant response rating, Ryegrass, Italian ([4]; 500 g ai/ha): 0
- Plant response rating, Barnyardgrass ([5]; 125 g ai/ha): 0
- Plant response rating, Barnyardgrass ([5]; 500 g ai/ha): 20
- Plant response rating, Ragweed ([6]; 125 g ai/ha): 0
- Plant response rating, Ragweed ([6]; 500 g ai/ha): 0
- Plant response rating, Sedge, Umbrella (Flood) ([7]; 500 g ai/ha): 0
- Plant response rating, Ducksalad (Flood) ([8]; 500 g ai/ha): 0
- Plant response rating, Galium ([9]; 125 g ai/ha): 0
- Plant response rating, Galium ([9]; 500 g ai/ha): 0
- Plant response rating, Foxtail, Giant ([10]; 125 g ai/ha): 20
- Plant response rating, Foxtail, Giant ([10]; 500 g ai/ha): 50
- Plant response rating, Blackgrass ([11]; 125 g ai/ha): 0
- Plant response rating, Blackgrass ([11]; 500 g ai/ha): 0
- Plant response rating, Barnyardgrass ([12]; 125 g ai/ha): 0
- Plant response rating, Barnyardgrass ([12]; 500 g ai/ha): 30
- Plant response rating, Wheat ([13]; 125 g ai/ha): 0
- Plant response rating, Wheat ([13]; 500 g ai/ha): 0
- Plant response rating, Ragweed ([14]; 125 g ai/ha): 0
- Plant response rating, Ragweed ([14]; 500 g ai/ha): 0
- Plant response rating, Kochia (kochia (Kochia scoparia) [15]; 125 g ai/ha): 0
- Plant response rating, Kochia (kochia (Kochia scoparia) [15]; 500 g ai/ha): 0
- Plant response rating, Pigweed ([16]; 125 g ai/ha): 0
- Plant response rating, Pigweed ([16]; 500 g ai/ha): 0
- Plant response rating, Foxtail, Giant ([17]; 125 g ai/ha): 0
- Plant response rating, Foxtail, Giant ([17]; 500 g ai/ha): 20
- Plant response rating, Corn (corn (Zea mays); 125 g ai/ha): 0
- Plant response rating, Corn (corn (Zea mays); 500 g ai/ha): 0
- Plant response rating, Pigweed ([18]; 125 g ai/ha): 0
- Plant response rating, Pigweed ([18]; 500 g ai/ha): 0

SMILES: O=C1NCC(c2cccc(OC(F)(F)C(F)OC(F)(F)F)c2)C1C(=O)Nc1ccccc1F (stereo not drawn) [Compound 40]
- Plant response rating, Barnyardgrass (Flood) ([1]; 250 g ai/ha): 20
- Plant response rating, Rice (Flood) (rice (Oryza sativa); 250 g ai/ha): 0
- Plant response rating, Kochia (kochia (Kochia scoparia) [2]; 125 g ai/ha): 0
- Plant response rating, Kochia (kochia (Kochia scoparia) [2]; 500 g ai/ha): 90
- Plant response rating, Ryegrass, Italian ([3]; 125 g ai/ha): 0
- Plant response rating, Ryegrass, Italian ([3]; 500 g ai/ha): 0
- Plant response rating, Ryegrass, Italian ([4]; 125 g ai/ha): 0
- Plant response rating, Ryegrass, Italian ([4]; 500 g ai/ha): 0
- Plant response rating, Barnyardgrass ([5]; 125 g ai/ha): 50
- Plant response rating, Barnyardgrass ([5]; 500 g ai/ha): 90
- Plant response rating, Ragweed ([6]; 125 g ai/ha): 0
- Plant response rating, Ragweed ([6]; 500 g ai/ha): 20
- Plant response rating, Sedge, Umbrella (Flood) ([7]; 250 g ai/ha): 0
- Plant response rating, Ducksalad (Flood) ([8]; 250 g ai/ha): 70
- Plant response rating, Galium ([9]; 125 g ai/ha): 40
- Plant response rating, Galium ([9]; 500 g ai/ha): 40
- Plant response rating, Foxtail, Giant ([10]; 125 g ai/ha): 90
- Plant response rating, Foxtail, Giant ([10]; 500 g ai/ha): 90
- Plant response rating, Blackgrass ([11]; 125 g ai/ha): 0
- Plant response rating, Blackgrass ([11]; 500 g ai/ha): 30
- Plant response rating, Barnyardgrass ([12]; 125 g ai/ha): 50
- Plant response rating, Barnyardgrass ([12]; 500 g ai/ha): 40
- Plant response rating, Wheat ([13]; 125 g ai/ha): 0
- Plant response rating, Wheat ([13]; 500 g ai/ha): 20
- Plant response rating, Ragweed ([14]; 125 g ai/ha): 0
- Plant response rating, Ragweed ([14]; 500 g ai/ha): 0
- Plant response rating, Kochia (kochia (Kochia scoparia) [15]; 125 g ai/ha): 0
- Plant response rating, Kochia (kochia (Kochia scoparia) [15]; 500 g ai/ha): 0
- Plant response rating, Pigweed ([16]; 125 g ai/ha): 0
- Plant response rating, Pigweed ([16]; 500 g ai/ha): 0
- Plant response rating, Foxtail, Giant ([17]; 125 g ai/ha): 40
- Plant response rating, Foxtail, Giant ([17]; 500 g ai/ha): 60
- Plant response rating, Corn (corn (Zea mays); 125 g ai/ha): 0
- Plant response rating, Corn (corn (Zea mays); 500 g ai/ha): 0
- Plant response rating, Pigweed ([18]; 125 g ai/ha): 0
- Plant response rating, Pigweed ([18]; 500 g ai/ha): 0
